Assay results published in patent US11414378B2, “Anti-fungals compounds targeting the synthesis of fungal sphingolipids” (THE RESEARCH FOUNDATION FOR THE STATE UNIVERSITY OF NEW YORK, priority 2017, dated 2022).
Values after ≈ are worked out from the molar mass of the structure shown.

What was measured:
HepG2 = HepG2 toxicity; type: cell-based; settings: Tables 1-3
C. neoformans [1] = test: In vitro susceptibility testing (MIC / IC80); type: cell-based, Cryptococcus neoformans; settings: Cryptococcus neoformans; Tables 1-3
Method: Minimal inhibitory concentration (MIC) was determined following the methods of the Clinical Laboratory Standards Institutes (CLSI) with modifications. MIC studies used either RPMI or YNB medium (pH 7.0, 0.2% glucose) buffered with HEPES. […] The compound was serially diluted from 32 to 0.03 μg/ml or 19 to 0.02 μg/ml respectively in a 96 well plate with the respective medium. The yeast inoculum was prepared as described in the CLSI protocol M27-A3 guidelines. Plates were incubated at 37° C. and in the presence of 5% CO2 for 24-96 hours. Against all fungal isolates used in the initial susceptibility screen, the MICs were determined as the lowest concentration of the drug that inhibited 50% of growth compared to the control. MIC80 and MIC100, whose drug concentrations inhibited 80% and 100% growth compared to the control respectively, were also determined. For antibacterial activity, E. coli DH5a and P. aeruginosa PA14 were grown overnight in Luria Bertani (LB) broth at 30° C. The cells were washed with PBS and counted. Then, 300 μL from 2×10^8 cells/mL was spreaded onto LB agar plate using a hockey stick glass spreader. The plate was dried, and wells were punched out using a cut tip. Fifty microliters of different drug concentration was added to the well. The plate was then incubated at 30° C. for 24 hours.

A549 = A549 toxicity; type: cell-based; settings: Tables 1-3
C. neoformans [2] = test: In vitro susceptibility (MIC80) assay; type: cell-based; settings: Cryptococcus neoformans; lowest concentration that inhibited 80% of growth; YNB pH 7.0, HEPES, 37° C., 5% CO2
Method: MICs was determined following the methods of the Clinical and Laboratory Standards Institutes (CLSI) with modifications. Yeast Nitrogen Base (YNB) medium (pH 7.0, 0.2% glucose) buffered with HEPES was used for MIC studies. […] The compound was serially diluted from 16 to 0.03 μg/ml, in a 96-well plate. The inoculum was prepared as described in the CLSI protocol M27A3 guidelines. The plates were incubated at 37° C. with 5% CO2 for 24 to 72 h and the optical density was measure at 450 nm. The MICs was determined as the lowest concentration of the compound that inhibited 80% of growth compared to the control.

C. neoformans cells = test: In vitro killing activity (K100) assay; type: cell-based, Cryptococcus neoformans; settings: minimum concentration that kills 100% of C. neoformans cells in 48 h; for MFC: Cryptococcus neoformans
Method: C. neoformans cells from a culture grown overnight were washed in PBS and resuspended in YNB buffered with HEPES at pH 7.4. The cells were counted, and 2×10^4 cells were incubated with different concentration of compounds in a final volume of 10 ml with a final concentration of 0.5% DMSO. The tubes were then incubated at 37° C. with 5% CO2 on a rotary shaker at 200 rpm. Aliquots were taken at time points and diluted, and […] were plated onto Yeast Extract-Peptone-Dextrose (YPD) plates. YPD plates were incubated in a 30° C. incubator and after 48 h, the numbers of CFU were counted and recorded.

SMILES	HepG2 (HepG2) [µg/mL]	IC80 (C. neoformans [1]) [µg/mL]	A549 (A549) [µg/mL]	MIC80 (C. neoformans [2]) [µg/mL]	MFC (C. neoformans cells) [µg/mL]	K100* (μg/mL) (C. neoformans cells)
Cc1ccc(O)c(/C=N/NC(=O)c2cc(Br)ccc2O)c1	16	0.25 (≈ 0.716 µM)	16			
Cc1ccc(O)c(/C=N/NC(=O)c2ccc(Br)cc2Br)c1	16	1 (≈ 2.43 µM)	32			
Cc1ccc(O)c(/C=N/NC(=O)c2cc(Br)ccc2Br)c1	32	1 (≈ 2.43 µM)	32			
O=C(N/N=C/c1cc(Cl)ccc1O)c1ccc(Br)cc1Br	64	0.25 (≈ 0.578 µM)	64			
O=C(N/N=C/c1cc(Cl)ccc1O)c1cccc(F)c1F	32	1 (≈ 3.22 µM)	72			
O=C(N/N=C/c1cc(Cl)ccc1O)c1cc(Br)ccc1Br	32	0.25 (≈ 0.578 µM)	59			
O=C(N/N=C/c1cc(Cl)cc(Cl)c1O)c1ccc(Br)cc1Br	64	1 (≈ 2.14 µM)	>64			
O=C(N/N=C/c1cc(Cl)cc(Cl)c1O)c1cc(Br)ccc1Br	32	0.5 (≈ 1.07 µM)	32			
O=C(N/N=C/c1c(O)ccc2ccccc12)c1ccc(Br)cc1Br	>32	0.12 (≈ 0.268 µM)	16			
O=C(N/N=C/c1c(O)ccc2ccccc12)c1cc(Br)ccc1Br	16	0.25 (≈ 0.558 µM)	32			
O=C(N/N=C/c1ccc(Br)cc1O)c1cccc(Br)c1	9	0.5 (≈ 1.26 µM)	>32			
O=C(N/N=C/c1ccc(Br)cc1O)c1ccc(Br)cc1Br	>64	0.06 (≈ 0.126 µM)	>32			
O=C(N/N=C/c1ccc(Br)cc1O)c1cccc(F)c1F	16	0.5 (≈ 1.41 µM)	16			
O=C(N/N=C/c1ccc(Br)cc1O)c1cc(Br)ccc1Br	16	0.12 (≈ 0.252 µM)	32			
O=C(N/N=C/c1cc(Br)ccc1O)c1ccc(Br)cc1Br	59	0.12 (≈ 0.252 µM)	>32			
O=C(N/N=C/c1cc(Br)ccc1O)c1cc(Br)ccc1Br	32	0.25 (≈ 0.524 µM)	16			
O=C(N/N=C/c1cc(Br)ccc1O)c1cc(Br)cc(Br)c1 [Compound A36, 3,5-Dibromo-N′-(5-bromo-2-hydroxybenzylidene)benzohydrazide]				0.06 (≈ 0.126 µM)	> 5	
O=C(N/N=C/c1c(O)ccc2ccccc12)c1cc(Br)cc(Br)c1 [Compound A37, 3,5-Dibromo-N′-(2-hydroxy-1-naphthylidene)benzohydrazide]				0.25 (≈ 0.558 µM)	0.5 (≈ 1.12 µM)	
O=C(N/N=C/c1cc(Cl)cc(Cl)c1O)c1cc(Br)cc(Br)c1 [Compound A38, 3,5-Dibromo-N′-(3,5-dichloro-2-hydroxybenzylidene)benzohydrazide]				0.5 (≈ 1.07 µM)	0.5 (≈ 1.07 µM)	
O=C(N/N=C/c1ccc(Br)cc1O)c1cc(Br)cc(Br)c1 [Compound A39, 3,5-Dibromo-N′-(4-bromo-2-hydroxybenzylidene)benzohydrazide]				1 (≈ 2.1 µM)	1 (≈ 2.1 µM)	
O=C(N/N=C/c1cc(Cl)ccc1O)c1cc(Br)cc(Br)c1 [Compound A40, 3,5-Dibromo-N′-(5-chloro-2-hydroxybenzylidene)benzohydrazide]				0.12 (≈ 0.277 µM)	1 (≈ 2.31 µM)	

SMILES	HepG2 (HepG2) [µg/mL]	IC80 (C. neoformans [1]) [µg/mL]	A549 (A549) [µg/mL]	MIC80 (C. neoformans [2]) [µg/mL]	MFC (C. neoformans cells) [µg/mL]	K100* (μg/mL) (C. neoformans cells)
Cc1ccc(O)c(/C=N/NC(=O)c2cc(Br)cc(Br)c2)c1 [Compound A41, 3,5-Dibromo-N′-(2-hydroxy-5-methylbenzylidene)benzohydrazide]				0.5 (≈ 1.21 µM)	1 (≈ 2.43 µM)	
O=C(N/N=C/c1cc(Br)cc(Br)c1O)c1cccc(Br)c1Br [Compound A42, 2,3-Dibromo-N′-(3,5-dibromo-2-hydroxybenzylidene)benzohydrazide]				0.5 (≈ 0.9 µM)	0.5 (≈ 0.9 µM)	
O=C(N/N=C/c1cc(Cl)cc(Cl)c1O)c1cccc(Br)c1Br [Compound A43, 2,3-Dibromo-N′-(3,5-dichloro-2-hydroxybenzylidene)benzohydrazide]				1 (≈ 2.14 µM)	1 (≈ 2.14 µM)	
O=C(N/N=C/c1cc(Br)cc(Br)c1O)c1ccc(CF)cc1 [Compound A44, 4-Fluromethyl-N′-(3,5-dibromo-2-hydroxybenzylidene)benzohydrazide]				0.5 (≈ 1.16 µM)	0.5 (≈ 1.16 µM)	
C#Cc1ccc(C(=O)N/N=C/c2cc(Br)cc(Br)c2O)cc1 [Compound A46, 4-Ethynyl-N′-(3,5-dibromo-2-hydroxybenzylidene)benzohydrazide]				0.12 (≈ 0.284 µM)		Fungistatic
O=C(N/N=C/c1cc(Br)cc(Br)c1O)c1ncc(Br)cn1 [Compound H1, 5-Bromo-N′-(3,5-dibromo-2-hydroxybenzylidene)pyrimidine-2-carbohydrazide]				0.25 (≈ 0.522 µM)	> 2	
O=C(N/N=C/c1cc(Br)ccc1O)c1ccc(Br)s1 [Compound H2, 5-Bromo-N′-(5-bromo-2-hydroxybenzylidene)thiophene-2-carbohydrazide]				0.12 (≈ 0.297 µM)	> 0.5	
O=C(N/N=C/c1ccc(Br)cc1O)c1ccc(Br)s1 [Compound H3, 5-Bromo-N′-(4-bromo-2-hydroxybenzylidene)thiophene-2-carbohydrazide]				0.12 (≈ 0.297 µM)	> 0.5	
O=C(N/N=C/c1cc(Br)cc(Br)c1O)c1ccc(Br)s1 [Compound H4, 5-Bromo-N′-(3,5-dibromo-2-hydroxybenzylidene)thiophene-2-carbohydrazide]				0.06 (≈ 0.124 µM)	> 0.25	
O=C(N/N=C/c1c(O)ccc2ccccc12)c1ccc(Br)s1 [Compound H5, 5-Bromo-N′-((2-hydroxynaphthalen-1-yl)methylene)thiophene-2-carbohydrazide]				0.12 (≈ 0.32 µM)	> 0.5	
O=C(N/N=C/c1cc(Br)ccc1O)c1cc(Br)c(Br)o1 [Compound H7, 4,5-Dibromo-N′-(5-bromo-2-hydroxybenzylidene) furan-2-carbohydrazide]				0.25 (≈ 0.535 µM)	> 1	
O=C(NN=Cc1ccc(Br)cc1O)c1cc(Br)c(Br)o1 [Compound H8, 4,5-Dibromo-N′-(4-bromo-2-hydroxybenzylidene)furan-2-carbohydrazide]				0.06 (≈ 0.129 µM)	> 0.25	
O=C(N/N=C/c1cc(Br)cc(Br)c1O)c1cc(Br)c(Br)o1 [Compound H9, 4,5-Dibromo-N′-(3,5-dibromo-2-hydroxybenzylidene)furan-2-carbohydrazide]				0.12 (≈ 0.22 µM)	> 0.5	
O=C(N/N=C/c1c(O)ccc2ccccc12)c1cc(Br)c(Br)o1 [Compound H10, 4,5-Dibromo-N′-(2-hydroxynaphthalen-1-yl)methylenefuran-2-carbohydrazide]				0.12 (≈ 0.274 µM)	> 0.5	
O=C(N/N=C/c1cc(Br)ccc1O)c1cc(Br)co1 [Compound H11, 4-Bromo-N′-(5-bromo-2-hydroxybenzylidene)furan-2-carbohydrazide]				0.25 (≈ 0.644 µM)	> 1	
O=C(N/N=C/c1ccc(Br)cc1O)c1cc(Br)co1 [Compound H12, 4-Bromo-N′-(4-bromo-2-hydroxybenzylidene) furan-2-carbohydrazide]				0.5 (≈ 1.29 µM)	> 2	
O=C(N/N=C/c1cc(Br)cc(Br)c1O)c1cc(Br)co1 [Compound H13, 4-bromo-N′-(3,5-dibromo-2-hydroxybenzylidene)furan-2-carbohydrazide]				0.06 (≈ 0.129 µM)	> 0.25	
O=C(N/N=C/c1ccc(Br)cc1O)c1ccoc1 [Compound H14, N′-(4-bromo-2-hydroxybenzylidene) furan-3-carbohydrazide]				0.5 (≈ 1.62 µM)	> 1	
O=C(N/N=C/c1cc(Br)cc(Br)c1O)C1CCOCC1 [Compound H15, N′-(3,5-dibromo-2-hydroxybenzylidene)tetrahydro-2H-pyran-4-carbohydrazide]				0.5 (≈ 1.23 µM)	> 2	
Cc1ccc(O)c(/C=N/NC(=O)c2cc(Br)cc(Br)c2O)c1 [drawing 66]	8	0.25 (≈ 0.584 µM)	4			
